Values after ≈ are worked out from the molar mass of the structure shown. Structures can show the parent of a compound that is named as a salt. Where two headings read alike, the source gives them in different places.
Key:
S. aureus (Oxford) = experiment: In vitro antibacterial activity, MIC against S. aureus (Oxford); format: cell-based
E. coli (NCTC 10418) = experiment: In vitro antibacterial activity, MIC against E. coli (NCTC 10418); format: cell-based
[1] = Staphylococcus aureus, read-out: MIC
[2] = Escherichia coli, NCTC10418, E. coli (NCTC 10418), read-out: MIC

Row | Structure (SMILES) | MIC (S. aureus (Oxford); [1]) | MIC (E. coli (NCTC 10418); E. coli (NCTC 10418)) | MIC (S. aureus (Oxford)) | MIC (E. coli (NCTC 10418); [2])
1 | CO/N=C(\C(=O)N[C@@H]1C(=O)N2C(C(=O)O)=C(OC3C=C(C)C(=O)O3)CS[C@H]12)c1csc(N)n1 (single isomer, unassigned) [3 Isomer (a)] | 4 µg/mL (≈ 8.07 µM) | 0.5 µg/mL (≈ 1.01 µM) | – | –
2 | CO/N=C(\C(=O)N[C@@H]1C(=O)N2C(C(=O)O)=C(OC3C=C(C)C(=O)O3)CS[C@H]12)c1csc(N)n1 (single isomer, unassigned) [3 Isomer (b)] | – | 0.12 µg/mL (≈ 0.242 µM) | 4 µg/mL (≈ 8.07 µM) | –
3 | CO/N=C(\C(=O)N[C@@H]1C(=O)N2C(C(=O)[O-])=C(SCC3=CC(=O)OC3)CS[C@H]12)c1csc(N)n1.[Na+] [Example 1, Sodium 7β-[2-(2-Aminothiazol-4-yl)-2-(Z)-methoxyiminoacetamido]-3-(2,5-dihydro-2-oxofuran-4-ylmethylthio)ceph-3-em-4-carboxylate] | 0.25 µg/mL | – | – | < 0.03 µg/mL
4 | CO/N=C(\C(=O)N[C@@H]1C(=O)N2C(C(=O)O)=C(SC3=CC(=O)OC3)CS[C@H]12)c1csc(N)n1 [Example 2, Sodium 7β-[2-(2-Aminothiazol-4-yl)-2-(Z)-methoxyiminoacetamido]-3-(2,5-dihydro-2-oxofuran-4-ylthio)ceph-3-em-4-carboxylate] | 1 µg/mL | – | – | 0.12 µg/mL
5 | CO/N=C(\C(=O)N[C@@H]1C(=O)N2C(C(=O)O)=C(Sc3cc(C)oc(=O)c3)CS[C@H]12)c1csc(N)n1 [Example 4, Sodium 7β-[2-(2-Aminothiazol-4-yl)-2-(Z)-methoxyiminoacetamido]-3-(6-methyl-2-oxo-2H-pyran-4-ylthio)ceph-3-em-4-carboxylate] | 1 µg/mL | – | – | 0.25 µg/mL
6 | CO/N=C(\C(=O)N[C@@H]1C(=O)N2C(C(=O)[O-])=C(CSC3=CC(=O)OC3)CS[C@H]12)c1csc(N)n1.[Na+] [Example 5, Sodium 7β-[2-(2-Aminothiazol-4-yl)-2-(Z)-methoxyiminoacetamido]-3-(2,5-dihydro-2-oxofuran-4-ylthiomethyl)ceph-3-em-4-carboxylate] | 0.25 µg/mL | – | – | < 0.03 µg/mL
7 | Nc1nc(/C(=N/O)C(=O)N[C@@H]2C(=O)N3C(C(=O)O)=C(CSC4=CC(=O)OC4)CS[C@H]23)cs1 [Example 6, 7β-[2-(2-Aminothiazol-4-yl)-2-(Z)-hydroxyiminoacetamido]-3-(2,5-dihydro-2-oxofuran-4-ylthiomethyl)ceph-3-em-4-carboxylic acid] | 0.12 µg/mL (≈ 0.241 µM) | – | – | < 0.03 µg/mL
8 | CO/N=C(\C(=O)N[C@@H]1C(=O)N2C(C(=O)[O-])=C(SCC3=CCOC3=O)CS[C@H]12)c1csc(N)n1.[Na+] [Example 7, Sodium 7β-[2-(2-Aminothiazol-4-yl)-2-(Z)-methoxyiminoacetamido]-3-(2,5-dihydro-2-oxofuran-3-ylmethylthio)ceph-3-em-4-carboxylate] | 0.5 µg/mL | – | – | < 0.03 µg/mL
9 | Nc1nc(/C(=N/O)C(=O)N[C@@H]2C(=O)N3C(C(=O)O)=C(SCC4=CCOC4=O)CS[C@H]23)cs1 [Example 8, 7β-[2-(2-Aminothiazol-4-yl)-2-(Z)-hydroxyiminoacetamido]-3-(2,5-dihydro-2-oxofuran-3-ylmethylthio)ceph-3-em-4-carboxylic acid] | 0.25 µg/mL (≈ 0.502 µM) | – | – | 0.12 µg/mL (≈ 0.241 µM)
10 | CO/N=C(\C(=O)N[C@@H]1C(=O)N2C(C(=O)[O-])=C(SC3CCOC3=O)CS[C@H]12)c1csc(N)n1.[Na+] (stereo partly drawn) [Example 9, Sodium 7β-[2-(2-Aminothiazol-4-yl)-2-(Z)-methoxyiminoacetamido]-3-(2-oxotetrahydrofuran-3-ylthio)ceph-3-em-4-carboxylate] | 2 µg/mL | – | – | 0.12 µg/mL
11 | Nc1nc(/C(=N/O)C(=O)N[C@@H]2C(=O)N3C(C(=O)O)=C(SCC4=CC(=O)OC4)CS[C@H]23)cs1 [Example 12, 7β-[2-(2-Aminothiazol-4-yl)-2-(Z)-hydroxyiminoacetamido]-3-(2,5-dihydro-2-oxofuran-4-ylmethylthio)ceph-3-em-4-carboxylic acid] | 0.25 µg/mL (≈ 0.502 µM) | – | – | 0.12 µg/mL (≈ 0.241 µM)
12 | CO/N=C(\C(=O)N[C@@H]1C(=O)N2C(C(=O)[O-])=C(CSC3=C(Cl)C(=O)OC3)CS[C@H]12)c1csc(N)n1.[Na+] [Example 13, Sodium 7β-[2-(2-Aminothiazol-4-yl)-2-(Z)-methoxyiminoacetamido]-3-(3-chloro-2,5-dihydro-2-oxofuran-4-ylthiomethyl)ceph-3-em-4-carboxylate] | 0.25 µg/mL | – | – | < 0.03 µg/mL
13 | CO/N=C(\C(=O)N[C@@H]1C(=O)N2C(C(=O)O)=C(CSc3cc(C)oc(=O)c3)CS[C@H]12)c1csc(N)n1 [Example 14, Sodium 7β-[2-(2-Aminothiazol-4-yl)-2-(Z)-methoxyiminoacetamido]-3-(6-methyl-2-oxo-2H-pyran-4-ylthiomethyl)ceph-3-em-4-carboxylate] | 0.5 µg/mL | – | – | < 0.03 µg/mL
14 | CO/N=C(\C(=O)N[C@@H]1C(=O)N2C(C(=O)O)=C(CSc3ccoc(=O)c3)CS[C@H]12)c1csc(N)n1 [Example 15, Sodium 7β-[2-(2-Aminothiazol-4-yl)-2-(Z)-methoxyiminoacetamido]-3-(2-oxo-2H-pyran-4-ylthiomethyl)ceph-3-em-4-carboxylate] | 0.25 µg/mL | – | – | < 0.03 µg/mL
15 | Nc1nc(/C(=N/OCC(=O)O)C(=O)N[C@@H]2C(=O)N3C(C(=O)O)=C(CSC4=CC(=O)OC4)CS[C@H]23)cs1 [Example 16, 7β-[2-(2-Aminothiazol-4-yl)-2-(Z)-carboxymethoxyiminoacetamido]-3-(2,5-dihydro-2-oxofuran-4-ylthiomethyl)ceph-3-em-4-carboxylic acid, disodium salt] | 8 µg/mL | – | – | < 0.06 µg/mL
16 | Cc1cc(SCC2=C(C(=O)O)N3C(=O)[C@@H](NC(=O)/C(=N\O)c4csc(N)n4)[C@H]3SC2)cc(=O)o1 [Example 17, 7β-[2-(2-Aminothiazol-4-yl)-2-(Z)-hydroxyiminoacetamido]-3-(6-methyl-2-oxo-2H-pyran-4-ylthiomethyl)ceph-3-em-4-carboxylic acid] | 0.25 µg/mL (≈ 0.477 µM) | – | – | 0.06 µg/mL (≈ 0.115 µM)
17 | CO/N=C(\C(=O)N[C@@H]1C(=O)N2C(C(=O)[O-])=C(OCC3=CC(=O)OC3)CS[C@H]12)c1csc(N)n1.[Na+] [Example 22, Sodium 7β-[2-(2-Aminothiazol-4-yl)-2-(Z)-methoxyiminoacetamido]-3-(2,5-dihydro-2-oxofuran-4-ylmethyloxy)ceph-3-em-4-carboxylate] | 2 µg/mL | – | – | 0.06 µg/mL
